In brackets after ≈: the same amount, converted by molar mass. Like-named read-outs stand apart in the source and are kept apart here.
Assays:
[1] = Thermodynamic solubility study (37° C., 4 hours); format: physicochemical; conditions: fassgf or other biorelevant, thermodynamic from solid, SIF pH = 6.8, 4 hours, read-out: Thermodynamic sol.
Experimental: Thermodynamic Solubility Study (37° C., 4 Hours)
The resulted mixtures/oversaturated solutions are shaken at 37° C. for 4 hrs (to the solution equilibrium) and are filtrated on a Millipore MultiSreen Filter Plate (0.45 μm). Concentrations of the filtrates are determined by LC/UV/MS based on a 5-point calibration. (When the solid material dissolved totally in the aqueous test medium the result should be considered as a minimal value.) Results are shown in Table 2.

[2] = Kinetic solubility study; format: physicochemical; conditions: PBS pH 7.4 with 1% DMSO, aqueous buffer, kinetic from dmso stock; PBS pH = 7.4, 2 hours, RT, 1% DMSO co-solvent; read-out: Kinetic sol.
Experimental: Following shaking of the suspension on an orbital shaker at 300 rpm for 2 hours, the suspension was clarified by vacuum filtration (Multiscreen® Vacuum Manifold; MilliporeSigma). Immediately following the filtration step, […] of the filtrate was transferred into […] of acetonitrile to avoid compound precipitation from the saturated solution. The concentration of the research compound was determined by HPLC-UV-(MS) detection, by using an external standard made from the same batch of research compound.

[3] = biological target: T1, human D3 receptors (Homo sapiens (Human), UniProt P35462); test: β-arrestin recruitment to human dopamine D3 receptors (PathHunter CHO-K1); format: cell-based
Target sequence in this assay (P35462 whole entry, looked up): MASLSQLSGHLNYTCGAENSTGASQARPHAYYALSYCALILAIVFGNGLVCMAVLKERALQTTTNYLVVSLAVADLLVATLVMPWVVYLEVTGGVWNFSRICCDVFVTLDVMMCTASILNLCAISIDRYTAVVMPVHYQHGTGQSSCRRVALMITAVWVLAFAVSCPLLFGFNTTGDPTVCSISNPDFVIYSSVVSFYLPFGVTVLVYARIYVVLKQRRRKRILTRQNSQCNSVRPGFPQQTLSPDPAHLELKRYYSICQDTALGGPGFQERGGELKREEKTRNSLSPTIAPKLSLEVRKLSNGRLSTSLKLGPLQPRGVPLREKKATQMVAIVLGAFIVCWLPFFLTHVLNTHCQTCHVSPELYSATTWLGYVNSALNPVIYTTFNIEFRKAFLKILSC
Target sequence in this assay (P32121 whole entry partner, looked up): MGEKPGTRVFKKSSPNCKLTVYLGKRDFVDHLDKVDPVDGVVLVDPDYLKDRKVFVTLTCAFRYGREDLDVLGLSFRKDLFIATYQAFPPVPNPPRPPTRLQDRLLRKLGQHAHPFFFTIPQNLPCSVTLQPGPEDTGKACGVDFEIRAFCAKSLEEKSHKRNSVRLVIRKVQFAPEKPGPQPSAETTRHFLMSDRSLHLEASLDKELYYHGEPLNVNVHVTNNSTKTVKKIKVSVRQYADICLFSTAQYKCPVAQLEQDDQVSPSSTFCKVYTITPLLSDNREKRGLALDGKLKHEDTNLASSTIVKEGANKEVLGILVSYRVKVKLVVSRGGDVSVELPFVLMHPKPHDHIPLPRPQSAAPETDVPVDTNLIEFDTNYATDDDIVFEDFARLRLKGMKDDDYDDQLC
Experimental: Measurement of β-Arrestin Recruitment to Human Dopamine D3 Receptors
PathHunter® CHO-K1 cells expressing tagged human D3 receptors and tagged β-arrestin-2 (Eurofins DiscoverX, Fremont, CA, USA) were seeded into 96-well white-walled clear bottom tissue culture plates in 90 μL AssayComplete™ Cell Plating 2 (CP2) reagent (Eurofins DiscoverX) at a density of 25,000 cells/well and incubated overnight in humidified atmosphere with 5% CO2 at 37° C. Twenty to twenty-four hours later, 20 μL of test compounds or vehicle in CP2 reagent containing 2.2% DMSO was added to the cells and the cells were incubated for 90 minutes at 37° C. Following incubation, 55 μL PathHunter® Detection Reagent (Eurofins DiscoverX) was added per well and the plates were incubated for 60 minutes at 25° C. followed by luminescence detection using a PHERAstar® FS multimode plate reader (BMG Labtech, Ortenberg, Germany).
Raw data were first converted to stimulation % above basal values. The stimulation % above basal values were further converted to % of maximal stimulation of β-arrestin recruitment by 1 μM dopamine. EC50 values were calculated from concentration-response curves of at least six concentrations in duplicates by sigmoidal fitting using Origin® 7.5 software (OriginLab© Corporation, Northampton, MA, USA) and were defined as the concentration of the agonist with half-maximal stimulation.

[4] = biological target: T2, human D2L receptors (Homo sapiens (Human), UniProt P14416); test: Agonism of human D2L receptors, cAMP detection (HTRF) in CHO-K1 cells; format: cell-based; conditions: inhibition of forskolin-stimulated cAMP accumulation, read-out: D2L cAMP pEC50 (converted)
Target sequence in this assay (P14416 whole entry): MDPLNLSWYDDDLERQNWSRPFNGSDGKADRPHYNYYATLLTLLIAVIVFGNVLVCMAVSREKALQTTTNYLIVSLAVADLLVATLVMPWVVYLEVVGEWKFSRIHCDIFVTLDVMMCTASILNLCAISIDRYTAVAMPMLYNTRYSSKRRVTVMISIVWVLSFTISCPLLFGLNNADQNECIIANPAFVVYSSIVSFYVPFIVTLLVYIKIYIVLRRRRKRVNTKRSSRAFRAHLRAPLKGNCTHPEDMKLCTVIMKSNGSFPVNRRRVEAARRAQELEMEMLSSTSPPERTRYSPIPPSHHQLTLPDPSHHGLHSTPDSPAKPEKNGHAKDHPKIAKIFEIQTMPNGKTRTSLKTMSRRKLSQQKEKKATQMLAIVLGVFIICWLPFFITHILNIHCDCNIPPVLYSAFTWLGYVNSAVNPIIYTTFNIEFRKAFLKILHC
Experimental: Agonist activity at human D2L receptors was assayed by measuring cAMP levels in CHO-K1 cells expressing human D2L receptors (Eurofins DiscoverX, Fremont, CA, USA) by homogenous time-resolved fluorescence (HTRF®) using the cAMP Gi kit (Cisbio/PerkinElmer). CHO-K1 cells expressing human D2L receptors were cultured in Ham's F12 medium supplemented with 10% FBS, 1% penicillin-streptomycin antimycotic solution, and 800 μg/mL G418 (Thermo Fisher Scientific, Waltham, MA, USA) and maintained at 37° C. in a humidified atmosphere containing 5.0% CO2. […] Results were calculated from the ratio of acceptor fluorescence signal (A665 nm) and donor fluorescence signal (A620 nm)×10^4 and expressed as ΔF % values using the following formula: 100×(Ratio Sample-Ratio Negative Control)/Ratio Negative Control. In experiments, all treatments were measured in multiple wells in parallel, and the mean ΔF % values were used for further analysis. Agonist activity values were calculated as percentage of inhibition of forskolin-stimulated cAMP accumulation normalized to the response evoked by a maximally effective concentration of dopamine tested in the same experiment. […]

[5] = biological target: T2, human D2L receptors; test: β-arrestin recruitment to human dopamine D2L receptors (PathHunter CHO-K1); format: cell-based; conditions: β-arrestin-2 recruitment, CHO-K1 cells, normalized to 30 μM dopamine; read-out: D2L arrestin pEC50 (converted)
Target sequence in this assay (P14416 whole entry, looked up): as the sequence (P14416 whole entry) above
Target sequence in this assay (P32121 whole entry partner, looked up): as the sequence (P32121 whole entry partner, looked up) above
Experimental: Measurement of β-Arrestin Recruitment to Human Dopamine D2L Receptors
PathHunter® CHO-K1 cells expressing tagged human D2L receptors and tagged β-arrestin-2 (Eurofins DiscoverX, Fremont, CA, USA) were seeded into 96-well white-walled clear bottom tissue culture plates in 90 μL/cell AssayComplete™ Cell Plating 2 (CP2) reagent (Eurofins DiscoverX) at a density of 20,000 cells/well. The plates were incubated overnight in a humidified atmosphere with 5% CO2 at 37° C. Twenty to twenty-four hours later, 20 μL of test compound or vehicle in CP2 reagent and containing 2.2% DMSO was added to the cells, and they were incubated for 90 minutes at 37° C. Then, 55 μL PathHunter® Detection Reagent (Eurofins DiscoverX) was added per well and plates were incubated for 60 minutes at 25° C., followed by luminescence detection using a PHERAstar® FS multimode plate reader (BMG Labtech, Ortenberg, Germany). Raw data were converted to percent stimulation above basal values. Values were further converted to percent of maximal stimulation of β-arrestin recruitment by 30 μM dopamine. EC50 values were calculated from concentration-response curves of at least six concentrations run in duplicates by sigmoidal fitting using Origin® 7.5 software (OriginLab Corporation, Northampton, MA, USA) and were defined as the concentration of the agonist with half-maximal stimulation.

[6] = biological target: human 5-HT2A receptors (Homo sapiens (Human), UniProt P28223); test: Antagonism at human 5-HT2A receptors, fluorometric Ca2+ detection; format: cell-based; conditions: CHO-K1 cells with Gα16, against EC80 5-HT; read-out: 5-HT2A Ca2+ pIC50 (converted)
human 5-HT2A receptors, sequence (P28223 whole entry): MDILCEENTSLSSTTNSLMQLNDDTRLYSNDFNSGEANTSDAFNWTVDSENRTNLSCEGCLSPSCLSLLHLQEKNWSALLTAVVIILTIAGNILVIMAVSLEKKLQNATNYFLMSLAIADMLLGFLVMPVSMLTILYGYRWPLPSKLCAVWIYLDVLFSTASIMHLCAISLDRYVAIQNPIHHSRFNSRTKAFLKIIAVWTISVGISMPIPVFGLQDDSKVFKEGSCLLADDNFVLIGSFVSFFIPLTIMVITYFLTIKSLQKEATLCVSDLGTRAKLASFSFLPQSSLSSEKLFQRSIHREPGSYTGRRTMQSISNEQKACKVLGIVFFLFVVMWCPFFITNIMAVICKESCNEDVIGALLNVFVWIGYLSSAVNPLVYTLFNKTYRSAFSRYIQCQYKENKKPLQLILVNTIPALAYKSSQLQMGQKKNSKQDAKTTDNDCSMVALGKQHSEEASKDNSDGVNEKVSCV
Description: Characterization of Antagonism at Human 5-HT2A Receptors using Fluorometric Ca^2+ Detection
CHO-K1 cells expressing human recombinant 5-HT2A receptors and Gα16 (purchased from Euroscreen Fast, Brussels, BE) in culture were cryopreserved according to established protocols, using 90% FBS/10% DMSO as medium. Prior to the experiment, cells were thawed, resuspended in PowerCHO™ 2 medium (Lonza, Basel, Switzerland) supplemented with 10% fetal bovine serum (FBS), 1% penicillin-streptomycin antimycotic solution, and 1% pyruvate. Cells were seeded in 96-well microplates at a density of 40,000 cells/well and incubated overnight at 37° C. in a humidified atmosphere containing 5.0% CO2. […]
Baseline and agonist-evoked [Ca^2+]i (intracellular Ca^2+) changes were monitored with a FlexStation® II 96 well plate reader (Molecular Devices, San Jose, CA, USA). […] Baseline was recorded for 20 seconds followed by agonist stimulation, when 50 μL 3× concentrated agonist (5-HT at its EC80) solution or assay buffer/vehicle was added to all wells at 75 μL/second using the onboard pipettor, at a height corresponding to 155 μL. Fluorescence was monitored for an additional 20 seconds.
Compounds were evaluated against an EC80 5-HT concentration, as determined on each plate with the built-in curve fitting module of the measurement software (SoftMax® Pro 5.2, Molecular Devices, San Jose, CA, USA). […]

[7] = biological target: T1, human D3 receptors; test: Agonism at human D3 receptors, cAMP detection (HTRF) in HEK293 cells; format: cell-based; conditions: inhibition of forskolin-stimulated cAMP accumulation, HEK293 cells co-expressing adenylyl cyclase V; read-out: D3 cAMP pEC50 (converted)
Target sequence in this assay (P35462 whole entry): as the sequence (P35462 whole entry, looked up) above
Experimental: Characterization of Agonism at Human D3 Receptors Using Cyclic Adenosine Monophosphate Detection
Agonist activity at human D3 receptors was assayed by cAMP levels in HEK293 cells expressing recombinant human D3 receptors (BioXtal, Saint-Félix, France) stably co-expressing adenylyl cyclase V (ACV) (cell line developed by Gedeon Richter) by homogenous time-resolved fluorescence (HTRF) using the cAMP Gi kit (Cisbio/PerkinElmer). HEK293 cells expressing recombinant human D3 receptors and ACV were cultured in DMEM supplemented with 10% FBS, 1% penicillin-streptomycin antimycotic solution, 1% pyruvate, 100 μg/mL G418 (Thermo Fisher Scientific) and 60 μg/mL hygromycin B and maintained at 37° C. in a humidified atmosphere containing 5% CO2. […]
Results were calculated from the ratio of acceptor fluorescence signal (A665 nm) and donor fluorescence signal (A620 nm)×10^4 and expressed as ΔF % values using the following formula: 100× (ratio sample-ratio negative control)/ratio negative control. In all experiments multiple wells were measured in parallel, and the mean ΔF % values were used for further analysis. Agonist activity values were calculated as percentage of inhibition of forskolin-stimulated cAMP accumulation normalized to the response evoked by a maximally effective concentration of dopamine tested in the same experiment. […]

[8] = tested on: phencyclidine-induced hypermotility; test: Phencyclidine-induced hypermotility in rats; format: in vivo; conditions: Rattus norvegicus; male Harlan-Wistar rats, percent inhibition, linear regression; read-out: PCP (ED50 mg/kg)
Experimental: Phencyclidine-Induced Hypermotility in Rats
Spontaneous locomotor activity was measured using a six-channel activity monitor manufactured by Experimetria Ltd. (Budapest, HU). […] Additional arrays of photocells (30 pairs) were placed along opposite sides of the cage at different heights (6.5 cm, 12 cm, 18 cm and 23 cm) in order to detect rearing responses.
Test compounds were administered to study animals either orally or subcutaneously, with ten animals per treatment group. In these studies, male Harlan-Wistar rats (Toxi-Coop, Budapest, HU) weighing 190-210 grams were used. After oral administration of test compound or vehicle, animals were individually habituated to the activity monitors for 30 minutes. In the cases of subcutaneous administration of test compounds, rats were first habituated for 15 minutes to the activity monitors, then treated with the test compound or vehicle followed by replacing them into the activity monitors for an additional 15-minute period of habituation. […]
Data were analyzed using GraphPad® Prism® 9 software (GraphPad, San Diego, CA, USA). […] Drug effect was evaluated using Analysis of Variance (ANOVA, or Welch's ANOVA when appropriate) followed by Dunnett's multiple comparisons test. When appropriate, the ED50 value was determined from percent inhibition data from linear regression analysis.

[9] = tested on: apomorphine-induced climbing and sniffing; test: Apomorphine-induced climbing and sniffing in mice; format: in vivo; conditions: Mus musculus, sc, male CD1 mice, subcutaneous, 1.5 mg/kg apomorphine
Experimental: Apomorphine-Induced Climbing and Sniffing in Mice
Male CD1® mice (Envigo, Horst, NL) weighing 24-29 g were used in the experiments (n=12 per treatment group). Climbing and sniffing behavior were measured by visual observation in cylindrical cages.
Immediately after the subcutaneous administration of the vehicle or the test compound, animals were placed into the cages for 10 minutes to habituate. […] After treatment, animals were replaced into the cylindrical cages. The measurement of climbing and sniffing behavior started 10 minutes after the apomorphine treatment (during the 11th minute) and lasted for 16 minutes. Every minute the climbing behavior was scored as follows: four paws on the floor (0 score); forefeet touching the bars (1 score); and four paws grasping the bars (2 score). Animals were also rated for repetitive sniffing as a measure of stereotypy according to the following scale: no sniffing (0 score), moderate sniffing, little snout contact with cage walls or floor (1 score); and constant sniffing, persistent snout contact (2 score).
Data were analyzed using GraphPad Prism 9 software (GraphPad). Scores for both behaviors were tallied for each individual (possible maximum score 32) and group means were calculated. Drug effect was calculated as percent inhibition of the apomorphine-induced behavior. […]

Row | solubility thermodynamic at 4 h [1] [µM] | solubility kinetic at 2 h [2] [µM] | Structure (SMILES) | EC50 [3] [nM] | EC50 [4] [nM] | EC50 [5] [nM] | IC50 [6] [nM] | EC50 [7] [nM] | ED50 [8] [mg/kg] | ED50 ([9]; apomorphine-induced climbing, read-out: APO (ED50 cl mg/kg)) [mg/kg] | ED50 ([9]; apomorphine-induced sniffing, read-out: APO (ED50 sn mg/kg)) [mg/kg]
1 | 27.7 ± 1.1 (≈ 12.6 µg/mL) | 10.9 ± 1.7 (≈ 4.96 µg/mL) | CCCN(C)C(=O)N[C@H]1CC[C@H](CCN2CCN(c3cccc(Cl)c3Cl)CC2)CC1 [Ref. Ex. 1, N′-[(1r,4r)-4-{2-[4-(2,3-dichlorophenyl)piperazin-1-yl]ethyl}cyclohexyl]-N-methyl-N-propylurea, reference compound] |  |  |  |  |  |  |  | 
2 | 32.7 ± 1.65 (≈ 15.9 µg/mL) | 32.4 ± 3.2 (≈ 15.7 µg/mL) | CCCOCN(C)C(=O)N[C@H]1CC[C@H](CCN2CCN(c3cccc(Cl)c3Cl)CC2)CC1 [Example 3, N′-[(1r,4r)-4-{2-[4-(2,3-dichlorophenyl)piperazin-1-yl]ethyl}cyclohexyl]-N-methyl-N-(propoxymethyl)urea] |  |  |  |  |  |  |  | 
3 | 53.5 ± 0.9 (≈ 25.2 µg/mL) | 72.7 ± 3.4 (≈ 34.3 µg/mL) | CCOCN(C)C(=O)N[C@H]1CC[C@H](CCN2CCN(c3cccc(Cl)c3Cl)CC2)CC1 [Example 1, N′-[(1r,4r)-4-{2-[4-(2,3-dichlorophenyl)piperazin-1-yl]ethyl}cyclohexyl]-N-(ethoxymethyl)-N-methylurea] |  |  |  | 158 |  | 0.07 | 0.1 | 0.4

Row | Structure (SMILES) | solubility thermodynamic at 4 h [1] [µM] | solubility kinetic at 2 h [2] [µM] | EC50 [3] [nM] | EC50 [4] [nM] | EC50 [5] [nM] | IC50 [6] [nM] | EC50 [7] [nM] | ED50 [8] [mg/kg] | ED50 ([9]; apomorphine-induced climbing, read-out: APO (ED50 cl mg/kg)) [mg/kg] | ED50 ([9]; apomorphine-induced sniffing, read-out: APO (ED50 sn mg/kg)) [mg/kg]
4 | COCN(C)C(=O)N[C@H]1CC[C@H](CCN2CCN(c3cccc(Cl)c3Cl)CC2)CC1 [Example 2, N′-[(1r,4r)-4-{2-[4-(2,3-dichlorophenyl)piperazin-1-yl]ethyl}cyclohexyl]-N-(methoxymethyl)-N-methylurea] | 147 ± 8.72 (≈ 67.3 µg/mL) | 47.7 ± 4.5 (≈ 21.8 µg/mL) | 3.89 | 1.32 | 0.724 | 132 | 1.95 |  |  | 

— patent US12168007B1, “Substituted piperazines as dopamine D3/D2 receptor modulators” (Richter Gedeon Nyrt, priority 2023, dated 2024)
